According to US6743822B2, “Reduction of hair growth” (The Gillette Company, priority 2001, dated 2004):
Values joined by “and” are separate entries in the source; they are usually repeats but may differ in a detail not shown here. Equal values may be shown once. “Also recorded” adds a separate entry of the source.

Columns and labels:
[1] = tested on: Human hair follicles in culture (facial skin); test: Human Hair Follicle Growth assay; assay type: cell-based; conditions: 0.5 mM, seven days in culture
Description: Hair follicles were isolated from human facial (obtained from patients who underwent face lift surgery) skin samples using fine forceps under a dissecting microscope and grown in tissue culture Williams E medium—supplemented with insulin (10 μg/ml), glutamine (2 mM), hydrocortisone ([…]) and antibiotics/antimycotics (pen/strep). Hair lengths were determined on day 0, and day 7. Human hair follicles in culture were treated with 0.5 mM concentration of L-DFMO, D-DFMO, D,L-DFMO. Controls were cultured in Williams E tissue culture medium without DFMO. The increase in hair fiber length was determined over seven days. […] Only L-DFMO produced statistically significant reduction in hair growth (p=0.003) in this time period. […] The “P” values, as determined by paired test analysis, were 0.97, 0.78 and 0.003 for the D,L-DFMO, D-DFMO and L-DFMO, respectively.

[2] = tested on: Hamster flank organ hair follicles; test: Golden Syrian Hamster hair follicle density assay (image analysis); assay type: in vivo; conditions: 7 days, dose 0.5%, vehicle of Example 2
Description: (§1) Hamster flank organs were treated topically with D,L-DFMO or L-DFMO with the contra-lateral side treated with the carrier vehicle without DFMO. Animals were sacrificed at the indicated time-point (4 days or 7 days) and back skins containing the flank organ were removed for analysis. Glycerin was applied to the underside of the dorsal skin of the hamster flank organ regions. Flank organ hair follicle mass and density were assessed, by imaging the region with a digital camera, and analysis of the images was performed with Ultimage/Pro (version 2.5) software by […]. This technique permitted the quantification of hair follicle mass based on particle area and number, and hair follicle density based on particle number.

[3] = tested on: flank organ hair regrowth of Golden Syrian hamsters; test: Golden Syrian Hamster visual efficacy assay; assay type: in vivo; conditions: dose 2%; for Number of animals demonstrating maximal efficacy (observation score of +3) after full three weeks of treatment / Percent of animals demonstrating maximal efficacy (observation score of +3) after full three weeks of treatment: vehicle of Example 2; for Number of animals demonstrating efficacy (score of +1 or greater) after two weeks of treatment / Percent of animals demonstrating efficacy (score of +1 or greater) after two weeks of treatment: vehicle of Example 2, blinded visual score
Description: Male intact Golden Syrian hamsters are considered acceptable models for human beard hair growth in that they display oval shaped flank organs, one on each side, each about 8 mm. in major diameter. These organs produce fine light colored hair typical of the animal pelage found on the body. In response to androgens the flank organs produce dark coarse hair similar to male human beard hair. To evaluate the effectiveness of a composition, the flank organs of each of a group of hamsters are depilated by applying a thioglycolate-based chemical depilatory (Surgex) and/or shaved. To one organ of each animal 10 μl of vehicle alone once a day is applied, while to the other organ of each animal an equal amount of vehicle containing substantially optically pure L-DFMO, substantially optically pure D-DFMO, racemic DFMO, or non-racemic DFMO including a preponderance of L-DFMO. After thirteen applications (one application per day for five days a week), the flank organs are shaved and the amount of recovered hair (hair mass) from each is weighed. For certain experiments, where indicated, the treatment period was for less than 13 applications. The reduced treatment period allowed for determination of onset in activity. Percent-reduction of hair growth is calculated by subtracting the hair mass (mg) value of the test compound treated side from the hair mass value of the vehicle treated side; the delta value obtained is then divided by the hair mass value of the vehicle treated side, and the resultant number is multiplied by 100. Visual evaluations comparing hair regrowth between the drug treated and the vehicle control site were made generally on day-8, day-15 and on day-19. These observations provide an identification of onset in activity (and thus efficacy). The assay in a ‘blinded’ study included visual observations comparing the regrowth of hair on the DFMO treated flank organ with the vehicle treated flank organ during the course of treatment. Scores were assigned from 0 to +3. 0, no difference; +1, DFMO treated shorter than vehicle treated indicating efficacy; +2, DFMO treated much shorter than vehicle treated; +3, DFMO treated nearly bald indicating maximal efficacy. […] This assay will be referred to herein as the “Golden Syrian Hamster visual efficacy” assay.

[4] = tested on: flank organs (hair growth) of male intact Golden Syrian hamsters; test: Golden Syrian Hamster assay (flank organ hair mass); assay type: in vivo; conditions: dose 0.3%, topical; for Hair Mass in mg (drug treated): vehicle of Example 2, thirteen applications; for Percent inhibition (hair mass): vehicle of Example 2, versus vehicle treated flank organ
Description: Male intact Golden Syrian hamsters are considered acceptable models for human beard hair growth in that they display oval shaped flank organs, one on each side, each about 8 mm. in major diameter. These organs produce fine light colored hair typical of the animal pelage found on the body. In response to androgens the flank organs produce dark coarse hair similar to male human beard hair. To evaluate the effectiveness of a composition, the flank organs of each of a group of hamsters are depilated by applying a thioglycolate-based chemical depilatory (Surgex) and/or shaved. To one organ of each animal 10 μl of vehicle alone once a day is applied, while to the other organ of each animal an equal amount of vehicle containing substantially optically pure L-DFMO, substantially optically pure D-DFMO, racemic DFMO, or non-racemic DFMO including a preponderance of L-DFMO. After thirteen applications (one application per day for five days a week), the flank organs are shaved and the amount of recovered hair (hair mass) from each is weighed. For certain experiments, where indicated, the treatment period was for less than 13 applications. The reduced treatment period allowed for determination of onset in activity. Percent-reduction of hair growth is calculated by subtracting the hair mass (mg) value of the test compound treated side from the hair mass value of the vehicle treated side; the delta value obtained is then divided by the hair mass value of the vehicle treated side, and the resultant number is multiplied by 100. Visual evaluations comparing hair regrowth between the drug treated and the vehicle control site were made generally on day-8, day-15 and on day-19. These observations provide an identification of onset in activity (and thus efficacy). The above-described assay will be referred to herein as the “Golden Syrian Hamster” assay The efficacy of DFMO-containing compositions containing greater than 90% L-DFMO (“L-DFMO” for purposes of the below assays), racemic DFMO (“D,L-DFMO”), and greater than 90% D-DFMO (or “D-DFMO” for purposes of the below assays) was determined using the Golden Syrian Hamster assay. The L-DFMO produced a substantially greater hair mass reduction than the D-DFMO or D,L-DFMO (Table 1). The average inhibition at the 0.3% dose for the L-, D- and D,L-DFMO was 43±6%, 19±11% and 25±9%, respectively.

[5] = tested on: Hamster flank organ hair follicles; test: Golden Syrian Hamster hair follicle spatial mass assay (image analysis); assay type: in vivo
Description: as §1

[6] = tested on: flank organs (hair growth) of Golden Syrian hamsters; test: Twice a Week Golden Syrian Hamster assay; assay type: in vivo; conditions: dose 1%, 2×/wk, vehicle of Example 2
Description: Male intact Golden Syrian hamsters are considered acceptable models for human beard hair growth in that they display oval shaped flank organs, one on each side, each about 8 mm. in major diameter. These organs produce fine light colored hair typical of the animal pelage found on the body. In response to androgens the flank organs produce dark coarse hair similar to male human beard hair. To evaluate the effectiveness of a composition, the flank organs of each of a group of hamsters are depilated by applying a thioglycolate-based chemical depilatory (Surgex) and/or shaved. To one organ of each animal 10 μl of vehicle alone once a day is applied, while to the other organ of each animal an equal amount of vehicle containing substantially optically pure L-DFMO, substantially optically pure D-DFMO, racemic DFMO, or non-racemic DFMO including a preponderance of L-DFMO. After thirteen applications (one application per day for five days a week), the flank organs are shaved and the amount of recovered hair (hair mass) from each is weighed. For certain experiments, where indicated, the treatment period was for less than 13 applications. The reduced treatment period allowed for determination of onset in activity. Percent-reduction of hair growth is calculated by subtracting the hair mass (mg) value of the test compound treated side from the hair mass value of the vehicle treated side; the delta value obtained is then divided by the hair mass value of the vehicle treated side, and the resultant number is multiplied by 100. Visual evaluations comparing hair regrowth between the drug treated and the vehicle control site were made generally on day-8, day-15 and on day-19. These observations provide an identification of onset in activity (and thus efficacy). The Golden Syrian Hamster assay was modified so that the animals received a reduced treatment frequency with DFMO, namely twice per week instead of five times a week.

[7] = 4 Days, dose 1%, vehicle of Example 2
[8] = 7 Days, dose 0.5%, vehicle of Example 2 (Table 5)
[9] = 7 days, dose 0.5%, vehicle of Example 2

NCCC[C@](N)(C(=O)O)C(F)F [L-DFMO, L-α-difluoromethylornithine]
hair follicle growth inhibition (increase in hair fiber length, as compared to controls) [1]: 36±12%
% Inhibition of Hair Follicle Density [2]: 45% and 45 ± 5%
Number of animals demonstrating maximal efficacy (observation score of +3) after full three weeks of treatment [3]: 5 out of 8
Number of animals demonstrating efficacy (score of +1 or greater) after two weeks of treatment [3]: 7 out of 8
Hair Mass in mg (drug treated) [4]: 1.06 ± 0.14 mg
Percent inhibition (hair mass) [4]: 43±6%
hair follicle mass reduction, fold greater than by D,L-DFMO ([5]; 0.5% dose, 7 days (Table 5)): ~4 fold
increase in efficacy (hair follicle spatial mass), fold versus D,L-DFMO ([5]; 0.5% dose, 7 days, another assay (Table 6)): ~4 fold
hair follicle mass reduction, fold greater than by D,L-DFMO ([5]; 1% dose, 4 days): 2 fold
Hair follicle mass as determined by image analysis: particle area (×10^6), Treated [5, 7]: 4.23 ± 1.1 ×10^6
Inhibition % of hair follicle mass [5, 7]: 43% and 43 ± 9%
Inhibition % of hair follicle mass [5, 8]: 58% and 58 ± 11%
% Inhibition of Hair Follicle Mass ([5]; 7 days, dose 0.5%, another assay (Table 6)): 41% and 41 ± 15%
Hair follicle mass as determined by image analysis: particle area (×10^6), Treated [5, 9]: 2.22 ± .94 ×10^6
Hair Mass in mg (drug treated) [6]: 1.83 ± 0.38 mg

NCCC[C@@](N)(C(=O)O)C(F)F [D-DFMO]
hair follicle growth inhibition (increase in hair fiber length, as compared to controls) [1]: 4±13%
Number of animals demonstrating maximal efficacy (observation score of +3) after full three weeks of treatment [3]: 0 out of 8
Number of animals demonstrating efficacy (score of +1 or greater) after two weeks of treatment [3]: 2 out of 8
Percent of animals demonstrating efficacy (score of +1 or greater) after two weeks of treatment [3]: 25%
Hair Mass in mg (drug treated) [4]: 1.39 ± 0.12 mg
Percent inhibition (hair mass) [4]: 19±11%
Hair Mass in mg (drug treated) [6]: 1.80 ± 0.18 mg

NCCC[C@](N)(C(=O)O)C(F)F (racemic) [D,L-DFMO, α-Difluoromethylornithine]
inhibition at 500 µM ([1]; Homo sapiens, 168 h, read-out: hair follicle growth inhibition (increase in hair fiber length, as compared to controls)): 1 ± 12%
% Inhibition of Hair Follicle Density [2]: no effect; also recorded: No Inhibition
Number of animals demonstrating maximal efficacy (observation score of +3) after full three weeks of treatment [3]: 1 out of 8
Percent of animals demonstrating maximal efficacy (observation score of +3) after full three weeks of treatment [3]: 13%
Number of animals demonstrating efficacy (score of +1 or greater) after two weeks of treatment [3]: 3 out of 8
Percent of animals demonstrating efficacy (score of +1 or greater) after two weeks of treatment [3]: 38%
Percent of animals demonstrating efficacy (score of +1 or greater) after two weeks of treatment ([3]; listed as D, L-DFMO): 38%
Percent of animals demonstrating maximal efficacy (observation score of +3) after full three weeks of treatment ([3]; listed as racemic DFMO): 13%
Hair Mass in mg (drug treated) [4]: 1.53 ± 0.19 mg
Percent inhibition (hair mass) [4]: 25±9%
Hair follicle mass as determined by image analysis: particle area (×10^6), Treated [5, 7]: 4.89 ± 0.9 ×10^6
Inhibition % of hair follicle mass [5, 7]: 20% and 20 ± 9%
Inhibition % of hair follicle mass [5, 8]: 15% and 15 ± 13%
Hair follicle mass as determined by image analysis: particle area (×10^6), Treated [5, 9]: 2.71 ± .71 ×10^6
Hair Mass in mg (drug treated) [6]: 1.74 ± 0.18 mg
